Here are results for seven molecules from patent publication CN107531679A, “芳香酰胺类衍生物、其制备方法及其在医药上的应用” (Jiangsu Hengrui Medicine Co Ltd, priority 2016, dated 2017).

Entries after “also recorded” stand apart in the source; their conditions may differ.

One assay deals with T1, RORγ (Homo sapiens, UniProt P51449).
T1 sequence (P51449 269-508 limits assumed): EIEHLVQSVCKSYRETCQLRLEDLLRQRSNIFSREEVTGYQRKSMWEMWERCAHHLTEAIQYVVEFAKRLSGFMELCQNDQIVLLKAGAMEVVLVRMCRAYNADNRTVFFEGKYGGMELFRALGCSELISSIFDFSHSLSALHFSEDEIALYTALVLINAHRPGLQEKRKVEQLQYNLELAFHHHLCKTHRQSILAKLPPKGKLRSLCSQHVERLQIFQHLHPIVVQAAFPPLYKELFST
As to the kind of experiment: TR-FRET RORγ coactivator assay (LanthaScreen). The note with it: RORγ LBD.

The subject of assay [1] is MC38 mouse colon tumour [MC38小鼠结肠肿瘤]. As to the kind of experiment: In vivo efficacy: MC38 colon tumour growth in syngeneic C57BL/6 mice. The note with it: for TGI (tumour growth inhibition rate): MC38 in C57BL/6 mice.

In the case of `CCS(=O)(=O)c1ccc(CNC(=O)c2ccc3c(c2)cc(Cc2ccc(F)cc2C(F)(F)F)n3C(C)C)cc1` [实施例4, N-(4-(乙磺酰基)苄基)-2-(4-氟-2-(三氟甲基)苄基)-1-异丙基-1H-吲哚-5-甲酰胺], on RORγ, the “effect on RORγ in vitro activity (mode of modulation, in words)” value (“effect on RORγ in vitro activity” below) is “表现出激动的效果”. As to `CCc1ccccc1Cc1cc2cc(C(=O)NCc3ccc(S(=O)(=O)CC)cc3)ccc2n1C(C)C` [实施例10, 2-(2-(乙基苄基)-N-(4-(乙磺酰基)苄基)-1-异丙基-1H-吲哚-5-甲酰胺], the “effect on RORγ in vitro activity” value at RORγ is “表现出激动的效果”. Consider `CCS(=O)(=O)c1ccc(CNC(=O)c2ccc3c(c2)cc(Cc2ccc(C(F)(F)F)cc2)n3C(C)C)cc1` [实施例14, N-(4-(乙磺酰基)苄基)-1-异丙基-2-(4-(三氟甲基)苄基)-1H-吲哚-5-甲酰胺], for which the “effect on RORγ in vitro activity” value at RORγ was “表现出抑制的效果”. Regarding `CCS(=O)(=O)c1ccc(CNC(=O)c2ccc3c(c2)cc(Cc2ccc(C(F)(F)F)cc2F)n3C(C)C)cc1` [实施例15, N-(4-(乙磺酰基)苄基)-2-(2-氟-4-(三氟甲基)苄基)-1-异丙基-1H-吲哚-5-甲酰胺], the “effect on RORγ in vitro activity” value on RORγ was “表现出抑制的效果”. With `CCS(=O)(=O)c1ccc(CNC(=O)c2ccc3c(c2)cc(Cc2cccc(C(F)(F)F)c2)n3C(C)C)cc1` [实施例17, N-(4-(乙磺酰基)苄基)-1-异丙基-2-(3-(三氟甲基)苄基)-1H-吲哚-5-甲酰胺], the “effect on RORγ in vitro activity” value at RORγ is “表现出抑制的效果”. Take `CCS(=O)(=O)c1ccc(CNC(=O)c2ccc3c(c2)cc(Cc2ccc(OC(F)(F)F)cc2)n3C(C)C)cc1` [实施例18, N-(4-(乙磺酰基)苄基)-1-异丙基-2-(4-(三氟甲氧基)苄基)-1H-吲哚-5-甲酰胺]: the “effect on RORγ in vitro activity” value at RORγ is “表现出抑制的效果”. With `CCS(=O)(=O)c1ccc(CNC(=O)c2ccc3c(c2)cc(Cc2ccc(Cl)cc2C(F)(F)F)n3CCF)cc1` [实施例30, 2-(4-氯-2-(三氟甲基)苄基)-N-(4-(乙磺酰基)苄基)-1-(2-氟乙基)-1H-吲哚-5-甲酰胺], the “TGI (tumour growth inhibition rate)” value is listed as 68% in assay [1] (Example 30 (12.5 mg/kg) combined with anti-mouse PD-1 monoclonal antibody (5 mg/mouse)) and 34% in assay [1] (single agent, 12.5 mg/kg, twice daily, 21 days). Besides, the synergy in words result in assay [1] (Example 30 combined with PD-1 antibody, MC38 colon tumour model) is given as “较强的协同效应; also recorded: 较强的协同作用”. Further, the “biological activity in vivo in words (RORγ activation versus inhibition)” value in assay [1] (MC38 colon tumour model, conclusion of the applicant) is recorded as “具有与RORγ激活(而非抑制)一致的生物活性”. The “antitumour effect in words” value in assay [1] (single agent, MC38 colon tumour model) is reported as “表现出抑瘤活性”.
